For this assay, the system named is htel, d[AG3(TTAG3)3]; htel(K) (hybrid in K+); htel(Na) (antiparallel in Na+) (DNA, G4) AGGGTTAGGGTTAGGGTTAGGG
As to the kind of experiment: visible absorption titration, 380 nm, Bard fit. To be noted: pH 7, 298 K, per G-tetrad.

For the compound `N#Cc1cc2nc3c4cccnc4c4ncccc4c3nc2cc1C#N.[Ru+2].c1cnc2c(c1)ccc1cccnc12.c1cnc2c(c1)ccc1cccnc12`, the Kb by setting is: (K+ (100 mM KCl), 50 mM phosphate, hybrid htel(K), site size 1.8, 7.2 μM complex) 1.1(±0.6) × 10^7 M^-1; (K+ (100 mM KCl), phosphate buffer, hybrid htel(K), site size 1.5) 4.2(±0.5) × 10^5 M^-1; (Na+ (sodium phosphate; 100 mM NaCl in TRIR samples), phosphate buffer, antiparallel htel(Na), site size 1.1) 1.9(±0.7) × 10^5 M^-1; (Na+ (sodium phosphate; 100 mM NaCl in TRIR samples), phosphate buffer, antiparallel htel(Na), site size 1.5) 2.2(±0.3) × 10^6 M^-1.

The values are drawn from PMC10557146 (2023).
